Test results published in patent US10662204B2 (PFIZER INC., priority 2018, dated 2020).

Legend:
KRAS G12C = KRAS G12C (Homo sapiens, UniProt P01116, G12C); test: Cell Activity Assay: accumulation of GDP-bound KRAS G12C in MIAPaCa-2 cells (Raf-1 RBD capture, MSD readout); format: cell-based; set-up: endogenous in cells; host or cells: MIAPaCa-2; conditions: 6 hours, assay limit is 30.00
Outline: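 MIAPaCa-2 cells exposed 6 h at 37 °C to 3-fold compound dilutions (0.3% DMSO final), then lysed. Active GTP-KRAS captured on Raf-1 RBD-coated plates, detected with anti-pan-Ras and SULFO-TAG secondary by MSD electrochemiluminescence. Signal normalized to DMSO and maximum inhibition; IC50 from 4-parameter fit.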

[1] = molecular target: T1, GDP-loaded KRAS (1-169) G12C, C51S, C80L, C118S (Homo sapiens, UniProt P01116, C118S/C51S/C80L/G12C); test: Mass Spectrometry Reactivity Assay (MSRA): covalent adduct of compound and KRAS G12C, Percent Modification; format: binding; conditions: for MSRA (% modification) 5.0 μM 0.017 hr / MSRA (% modification) 5.0 μM 0.25 hr: 5.0 μM compound; for MSRA (% modification) 10 μM 0.25 hr / MSRA (% modification) 10 μM 0.50 hr: 10 μM compound
T1 construct: GDP-loaded KRAS (1-169) G12C, C51S, C80L, C118S
Outline: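 GDP-loaded KRAS(1-169) G12C/C51S/C80L/C118S at 5 μM in 25 mM Hepes pH 7.5, 200 mM NaCl, 5% glycerol incubated at RT with compound (typically 5 or 10 μM final, 1% DMSO). Quenched in formic acid at 1-60 min; intact-protein LC-TOF MS gives % modification = modified/(modified+unmodified).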

`C=CC(=O)N1CCN(c2nc(O[C@@H]3CN(C)C[C@H]3O)nc3c(Oc4c(Cl)c(F)cc5[nH]ncc45)nc(Cl)cc23)CC1` [Example 37G, 1-[4-(6-chloro-8-[(5-chloro-6-fluoro-1H-indazol-4-yl)oxy]-2-{[(3R,4R)-4-hydroxy-1-methylpyrrolidin-3-yl]oxy}pyrido[3,4-d]pyrimidin-4-yl)piperazin-1-yl]prop-2-en-1-one] was tested, and the IC50 (KRAS G12C) was 0.338 µM and the “MSRA (% modification) 5.0 μM 0.017 hr” value [1] was 37%.
For `C=CC(=O)N1CCN(c2nc(OC[C@@H]3C[C@@H](F)CN3C)nc3c(Oc4c(Cl)c(F)cc5[nH]ncc45)nc(Cl)cc23)CC1` [Example 16G, 1-[4-(6-chloro-8-[(5-chloro-6-fluoro-1H-indazol-4-yl)oxy]-2-{[(2S,4R)-4-fluoro-1-methylpyrrolidin-2-yl]methoxy}pyrido[3,4-d]pyrimidin-4-yl)piperazin-1-yl]prop-2-en-1-one], the IC50 (KRAS G12C) was 0.111 µM and the “MSRA (% modification) 10 μM 0.25 hr” value [1] was 14%.
For `C=CC(=O)N1CCN(c2ncnc3c(Oc4c(Cl)c(C)cc5[nH]ncc45)nccc23)C[C@H]1C` [Example 21A, 1-[(2R)-4-{8-[(5-chloro-6-methyl-1H-indazol-4-yl)oxy]pyrido[3,4-d]pyrimidin-4-yl}-2-methylpiperazin-1-yl]prop-2-en-1-one], the IC50 (KRAS G12C) was 10.6 µM and the “MSRA (% modification) 10 μM 0.50 hr” value [1] was 12%.
With `C=CC(=O)N1CCN(c2nc(O[C@@H]3CN(C)C[C@H]3OCC)nc3c(Oc4c(Cl)c(F)cc5[nH]ncc45)nccc23)CC1` [Example 18I, 1-[4-(8-[(5-chloro-6-fluoro-1H-indazol-4-yl)oxy]-2-{[(3R,4R)-4-ethoxy-1-methyl-pyrrolidin-3-yl]oxy}pyrido [3,4-d]pyrimidin-4-yl)piperazin-1-yl]prop-2-en-1-one] the IC50 (KRAS G12C) was 0.093 µM and the “MSRA (% modification) 5.0 μM 0.017 hr” value [1] was 35%.
With `C=CC(=O)N1CCN(c2ncnc3c(Oc4c(C)c(Cl)cc5[nH]ncc45)nc(Cl)cc23)CC1` [Example 31A, 1-(4-{6-chloro-8-[(6-chloro-5-methyl-1H-indazol-4-yl)oxy]pyrido[3,4-d]pyrimidin-4-yl}piperazin-1-yl)prop-2-en-1-one] the IC50 (KRAS G12C) was 0.171 µM and the “MSRA (% modification) 10 μM 0.50 hr” value [1] was 79%.
In the case of `C=CC(=O)N1CCN(c2nc(NC(C)c3nncn3C)nc3c(Oc4c(C)ccc5[nH]ncc45)cccc23)CC1` (stereo not drawn) [Example 03F, 1-[4-(8-[(5-methyl-1H-indazol-4-yl)oxy]-2-{[1-(4-methyl-4H-1,2,4-triazol-3-yl)ethyl]amino}quinazolin-4-yl)piperazin-1-yl]prop-2-en-1-one], the IC50 (KRAS G12C) is reported as > 30 µM and the “MSRA (% modification) 10 μM 0.50 hr” value [1] is reported as 12%.
In the case of `C=CC(=O)N1CCN(c2nc(O[C@@H]3CN(C)C[C@H]3C)nc3c(Oc4c(Cl)c(F)cc5[nH]ncc45)nc(Cl)cc23)CC1` (racemic) [Example 32G, rac-1-[4-(6-chloro-8-[(5-chloro-6-fluoro-1H-indazol-4-yl)oxy]-2-{[(3S,4R)-1,4-dimethylpyrrolidin-3-yl]oxy}pyrido[3,4-d]pyrimidin-4-yl)piperazin-1-yl]prop-2-en-1-one], the IC50 (KRAS G12C) is reported as 0.016 µM and the “MSRA (% modification) 5.0 μM 0.017 hr” value [1] is reported as 44%.
`C=CC(=O)N1CCN(c2nc(OC[C@@H]3CCCN3C)nc3c(Oc4c(Cl)c(C)cc5[nH]ncc45)nc(Cl)cc23)CC1` [Example 06G, 1-[4-(6-chloro-8-[(5-chloro-6-methyl-1H-indazol-4-yl)oxy]-2-{[(2S)-1-methylpyrrolidin-2-yl]methoxy}pyrido[3,4-d]pyrimidin-4-yl)piperazin-1-yl]prop-2-en-1-one] was tested, and the IC50 (KRAS G12C) was 0.064 µM, the “MSRA (% modification) 5.0 μM 0.017 hr” value [1] was 23% and the “MSRA (% modification) 5.0 μM 0.25 hr” value [1] was 52%. The “MSRA (% modification) 10 μM 0.25 hr” value [1] was 82%.
With `C=CC(=O)N1CCN(c2nc(O[C@@H]3CN(C)C[C@H]3OC)nc3c(Oc4c(C)ccc5[nH]ncc45)nc(Cl)cc23)CC1` [Example 35G, 1-[4-(6-chloro-2-{[(3R,4R)-4-methoxy-1-methylpyrrolidin-3-yl]oxy}-8-[(5-methyl-1H-indazol-4-yl)oxy]pyrido[3,4-d]pyrimidin-4-yl)piperazin-1-yl]prop-2-en-1-one] the IC50 (KRAS G12C) was 0.027 µM and the “MSRA (% modification) 5.0 μM 0.017 hr” value [1] was 75%.
For `C=CC(=O)N1CCN(c2nc(OCc3nncn3C)nc3c(Oc4c(C)ccc5[nH]ncc45)cccc23)CC1` [Example 07F, 1-(4-{8-[(5-methyl-1H-indazol-4-yl)oxy]-2-[(4-methyl-4H-1,2,4-triazol-3-yl)methoxy]quinazolin-4-yl}piperazin-1-yl)prop-2-en-1-one], the IC50 (KRAS G12C) was 21.2 µM, the “MSRA (% modification) 5.0 μM 0.25 hr” value [1] was 22% and the “MSRA (% modification) 10 μM 0.25 hr” value [1] was 74%. The “MSRA (% modification) 10 μM 0.50 hr” value [1] was 75%.
With `C=CC(=O)N1CCN(c2ncnc3c(Oc4cc(O)cc5ccccc45)nc(C(F)(F)F)cc23)CC1` [Example 01, 1-(4-{8-[(3-hydroxynaphthalen-1-yl)oxy]-6-(trifluoromethyl)pyrido[3,4-d]pyrimidin-4-yl}piperazin-1-yl)prop-2-en-1-one] the IC50 (KRAS G12C) was > 30 µM and the “MSRA (% modification) 10 μM 0.50 hr” value [1] was 27%.
`C=CC(=O)N1CCN(c2nc(O[C@H]3Cc4nccn4C3)nc3c(Oc4c(C)ccc5[nH]ncc45)cccc23)CC1` [Example 08F, 1-(4-{2-[(6S)-6,7-dihydro-5H-pyrrolo[1,2-a]imidazol-6-yloxy]-8-[(5-methyl-1H-indazol-4-yl)oxy]quinazolin-4-yl}piperazin-1-yl)prop-2-en-1-one] was tested, and the IC50 (KRAS G12C) was 1.6 µM, the “MSRA (% modification) 10 μM 0.25 hr” value [1] was 58% and the “MSRA (% modification) 10 μM 0.50 hr” value [1] was 72%.
`C=CC(=O)N1CCN(c2nc(Oc3cccc4c3CCN(C(C)C)C4)nc3c(Oc4c(C)ccc5[nH]ncc45)nccc23)CC1` [Example 30I, 1-[4-(8-[(5-methyl-1H-indazol-4-yl)oxy]-2-{[2-(propan-2-yl)-1,2,3,4-tetrahydro-isoquinolin-5-yl]oxy}pyrido [3,4-d]pyrimidin-4-yl)piperazin-1-yl]prop-2-en-1-one] was tested, and the IC50 (KRAS G12C) was 0.03 µM and the “MSRA (% modification) 5.0 μM 0.017 hr” value [1] was 45%.
`C=CC(=O)N1CCN(c2nc(OC[C@@H]3CCC(=O)N3)nc3c(Oc4c(C)ccc5[nH]ncc45)cccc23)CC1` [Example 11F, (5S)-5-[({4-(4-acryloylpiperazin-1-yl)-8-[(5-methyl-1H-indazol-4-yl)oxy]quinazolin-2-yl}oxy)methyl]pyrrolidin-2-one] was tested, and the IC50 (KRAS G12C) was 8.14 µM, the “MSRA (% modification) 10 μM 0.25 hr” value [1] was 34% and the “MSRA (% modification) 10 μM 0.50 hr” value [1] was 55%.
With `C=CC(=O)N1CCN(c2nc(O[C@@H]3CN(CCO)C[C@H]3OC)nc3c(Oc4c(Cl)c(F)cc5[nH]ncc45)nccc23)CC1` [Example 46I, 1-[4-(8-[(5-chloro-6-fluoro-1H-indazol-4-yl)oxy]-2-{[(3R,4R)-1-(2-hydroxy-ethyl)-4-methoxy-pyrrolidin-3-yl]oxy}pyrido [3,4-d]pyrimidin-4-yl)piperazin-1-yl]prop-2-en-1-one] the IC50 (KRAS G12C) was 0.285 µM and the “MSRA (% modification) 5.0 μM 0.017 hr” value [1] was 70%.
With `C=CC(=O)N1CCN(c2nc(N(C)CCC(=O)N(C)C)nc3c(Oc4c(C)ccc5[nH]ncc45)cccc23)CC1` [Example 05F, N^3-{4-(4-acryloylpiperazin-1-yl)-8-[(5-methyl-1H-indazol-4-yl)oxy]quinazolin-2-yl}-N,N,N^3-trimethyl-β-alaninamide] the IC50 (KRAS G12C) was 28.5 µM and the “MSRA (% modification) 10 μM 0.50 hr” value [1] was 22%.
`C=CC(=O)N1CCN(c2nc(OCc3cscn3)nc3c(Oc4c(C)ccc5[nH]ncc45)nccc23)CC1` [Example 22F, 1-(4-{8-[(5-methyl-1H-indazol-4-yl)oxy]-2-(1,3-thiazol-4-ylmethoxy)pyrido[3,4-d]pyrimidin-4-yl}piperazin-1-yl)prop-2-en-1-one] was tested, and the IC50 (KRAS G12C) was 0.535 µM and the “MSRA (% modification) 5.0 μM 0.25 hr” value [1] was 33%.
With `C=CC(=O)N1CCN(c2nc(OCC(C)(C)O)nc3c(Oc4c(Cl)c(F)cc5[nH]ncc45)nc(Cl)cc23)CC1` [Example 13G, 1-(4-{6-chloro-8-[(5-chloro-6-fluoro-1H-indazol-4-yl)oxy]-2-(2-hydroxy-2-methylpropoxy)pyrido[3,4-d]pyrimidin-4-yl}piperazin-1-yl)prop-2-en-1-one] the IC50 (KRAS G12C) was 0.16 µM, the “MSRA (% modification) 5.0 μM 0.25 hr” value [1] was 70% and the “MSRA (% modification) 10 μM 0.25 hr” value [1] was 78%. The “MSRA (% modification) 10 μM 0.50 hr” value [1] was 80%.
In the case of `C=CC(=O)N1CCN(c2nc(NCCC(=O)N(C)C)nc3c(Oc4c(C)ccc5[nH]ncc45)cccc23)CC1` [Example 06F, N^3-{4-(4-acryloylpiperazin-1-yl)-8-[(5-methyl-1H-indazol-4-yl)oxy]quinazolin-2-yl}-N,N-dimethyl-β-alaninamide], the IC50 (KRAS G12C) is reported as 3.24 µM and the “MSRA (% modification) 10 μM 0.50 hr” value [1] is reported as 46%.
`C=CC(=O)N1CCN(c2nc(N3CC(CN(C)C)C3)nc3c(Oc4c(C)ccc5[nH]ncc45)cccc23)CC1` [Example 10E, 1-[4-(2-{3-[(dimethylamino)methyl]azetidin-1-yl}-8-[(5-methyl-1H-indazol-4-yl)oxy]quinazolin-4-yl)piperazin-1-yl]prop-2-en-1-one] was tested, and the IC50 (KRAS G12C) was 2.32 µM and the “MSRA (% modification) 10 μM 0.50 hr” value [1] was 21%.
